Patent US12599130B2, “Liquid agricultural adjuvant” (Oro Agri Inc., priority 2019, dated 2026)

Test system: not listed separately
Assay: Paraffin wax solubility test
Type: physicochemical
Conditions: 2.0 g paraffin wax in 98 g solvent, 25° C., stirring at 350 rpm

Row | DISSOLUTION TIME | Structure (SMILES)
1 | 930 min | CCCCCCCCCCCC(=O)OCC(CC)CCCC (stereo not drawn) [2-ETHYLHEXYL LAURATE]
2 | 620 min | CCCCCCCCCCCC(=O)OCCC(C)C [ISOAMYL LAURATE]
3 | 340 min | CCCCCCCCCCCC(=O)OCC(C)C [ISOBUTYL LAURATE]
4 | 102 min | CCCCCCCCCCCC(=O)OC(C)C [ISOPROPYL LAURATE]
5 | 300 min | CCCCCCCCCCCC(=O)OC [METHYL LAURATE]

Same assay, conditions: 2.0 g paraffin wax in 98 g solvent, 25° C., up to 24 hours stirring

Row | OBSERVATION | Structure (SMILES)
6 | UNDISSOLVED | C[S+](C)[O-] [DIMETHYL SULFOXIDE]
7 | UNDISSOLVED | CC1COC(=O)O1 (stereo not drawn) [PROPYLENE CARBONATE]
8 | UNDISSOLVED | OCC1CCCO1 (stereo not drawn) [TETRAHYDROFURFURAL ALCOHOL]

Row | Structure (SMILES) | OBSERVATION
9 | CCCCCCCCCC(=O)N(C)C | UNDISSOLVED
10 | O=C1CCCCC1 [CYCLOHEXANONE] | UNDISSOLVED

Test system: wheat
Assay: Field trial: wheat cover crop burndown with glyphosate plus adjuvant at full tillering
Type: in vivo
Conditions: 14 DAT, adjuvant rate 10 g/L, glyphosate 420 g ae/ha
Method: Adjuvant x Adjuvant rate effect on wheat cover crop burndown with glyphosate at full tillering stage.
A bifactorial trial was conducted consisting of […] treatments, comprised of a combination of 10 adjuvants (factor A) and 2 adjuvants rates (factor B), plus three reference treatments (Table 6).
Prior to treatment application, two plots per block were chosen to record wheat height and tiller number per plant. In each plot, the height of the tallest and shortest plant was measured, and the tillers counted.
Herbicide application was done using a single-nozzle boom connected to a backpack CO2 pressurized system. Each plot measured 3 ft×20 ft. After 14 and 28 days of application, wheat desiccation was evaluated visually using a 0-100% scale, where 0 corresponds to absence of injury symptoms and 100% corresponds to plant death.

Row | Structure (SMILES) | Wheat desiccation (%)
11 | N.N.O=S(=O)(O)O [Ammonium sulfate] | 80%

Same assay, conditions: 28 DAT, adjuvant rate 10 g/L, glyphosate 420 g ae/ha

Row | Structure (SMILES) | Wheat desiccation (%)
12 | N.N.O=S(=O)(O)O [Ammonium sulfate] | 95%
